Results: patent US9233107B2, “Compositions and methods for the treatment of progressive multifocal leukoencephalopathy (PML)” (Biogen MA Inc., priority 2007, dated 2016)
Read-outs that look alike come from different tables or passages of the source.

Assays:
SVG-A cells = assay: Total cell number (DAPI+ events) / cytotoxicity in the JCV infectivity assay; settings: for % Inhibition total Cell Number @10 uM: cytotoxicity, DAPI count; for inhibition at 10 µM: Homo sapiens, SVG-A, read-out: % Inhibition total Cell Number @10 uM
Experimental: (§1) SV40 transformed glial cells were seeded in 10% FBS media. The cells were seeded at 2000 cells per well in 75 μl of media per well. On day 2, the media was removed and replaced by 35 μl of a 1× concentrated drug aliquot combined with a 100× diluted JCV Turbo aliquot in 35 μl of 2% FBS media (JCV Turbo is a hybrid Mad-1/SVEΔ virus constructed by insertion of the regulatory region of SV40 into the regulatory region of the Mad-1 strain of JCV (Mad-1/SVE), Vacante et al., Virology 1989, 170: 353-361). The cells were incubated for an hour, after which another 65 uL aliquot of 1× concentrated drug in 2% FBS was added. On day 5 the cells were stained with DAPI (for total cell number) and with a mouse monoclonal antibody against SV40 VP1, which cross reacts with the JCV VP1 protein. […] The information is tabulated as % inhibition (as measured by the number and percentage of JCV positive cells).
(§2) JCV Infectivity Assay: SVG-A cells were seeded at 2,000 cells/well/0.075 ml of culture media in 96 flat-bottom well plate (Corning, N.Y.). The next day compounds were prepared in assay medium (2% heat-inactivated fetal bovine serum, 4 mM L-glutamine, 1×MEM). A master viral plate was prepared by mixing equal volumes of [2×] compound and [2×] diluted virus for the final 1× concentration of the compound and the virus. The plate containing cells was gently inverted and shaken to remove media. From the master plate, 0.035 ml compound/virus was added to designated wells. The cells were incubated with the compound/virus mixture for 60 minutes in a humidified 37° C. CO2 incubator. At that time final concentration of the drug in media was added to designated wells to bring the final volume up to 0.1 ml/well. The plates were incubated for an additional three days, the cells were then washed once with 1×PBS, and fixed in 2% paraformaldehyde/1×PBS for 30 minutes at room temperature. The fixative was removed and the cells were solubilized with 0.5% Triton X100 in PBS for an additional 30 minutes. Infection by Mad-1/SVEΔ virus was visualized by staining with PAB597, a monoclonal antibody against the major capsid protein VP1, the cells were incubated with 0.05 ml of PAB597 (2 μg/ml in 1×PBS) for 60 minutes at 37° C. Following a wash step with 1×PBS, primary antibody was detected with an Alexa-Fluor 488-labeled goat anti-mouse secondary antibody at 1:100 dilution in 1×PBS, cells were counterstained with DAPI at 1 μg/ml (0.05 ml/well) for 30 minutes at 37° C. Cells were washed with 1×PBS and 0.1 ml 1×PBS was added to cells. Field images of each well were acquired and analyzed using the Cellomics ArrayScan (Thermo Scientific Inc, Waltham, Mass.) using the Target Activation software. […] The cells are seeded at 4,000 cells/well/0.075 ml of culture media in 96 flat-bottom well plate (Corning). The culture media is used for the infection. The length of the infection is six to ten days (instead of the three days for SVG-A cells).
The primary assay employed an SVG-A cell line and JCV Mad1/SVEΔ viral strain.

JCV strain Mad1/SVEΔ = assay: microbe, parasite or virus in culture; assay type: cell-based, JC polyomavirus (JCV); settings: for % Inhibition (total #JCV+) @10 uM: SV40 transformed glial cells, Mad-1/SVEΔ JCV; for % Inhibition (% JCV+) @10 uM: infection rate, JCV+ cells normalised to total cells
Experimental: as §1, §2
Calculations: The rate of JCV infection was calculated by normalizing the number of JCV infected cells by the total number of nucleated cells as % JCV^+ cells=((total # VP1^+ cells)/(total # DAPI^+ cells))*100%. The % of viral inhibition by a compound was calculated using a JCV infection rate instead of using total number of JCV infected cells (e.g., VP1^+ cells).

[1] = JC polyomavirus, Glial cell, read-out: % Inhibition (total #JCV+) @10 uM
[2] = JC polyomavirus, SVG-A, read-out: % Inhibition (% JCV+) @10 uM

Structure (SMILES) | inhibition at 10 µM (SVG-A cells) | inhibition at 10 µM (JCV strain Mad1/SVEΔ; [1]) | inhibition at 10 µM (JCV strain Mad1/SVEΔ; [2]) | also measured
C[C@@H]1CC[C@@]2(OC1)O[C@H]1C[C@H]3[C@@H]4CC[C@H]5C[C@@H](O)CC[C@]5(C)C4=CC[C@]3(C)[C@H]1[C@@H]2C [3beta-HYDROXYISOALLOSPIROST-9(11)-ENE] |  |  |  | % Inhibition total Cell Number @10 uM (SVG-A cells): 3%; % Inhibition (total #JCV+) @10 uM (JCV strain Mad1/SVEΔ): 25%; % Inhibition (% JCV+) @10 uM (JCV strain Mad1/SVEΔ): 21%
CCCCOc1cc(CC2CNC(=O)N2)ccc1OC (stereo not drawn) [4-(3-BUTOXY-4-METHOXYBENZYL)IMIDAZOLIDIN-2-ONE] | 12% | 48% | 42% | 
O=C(O)c1cc([N+](=O)[O-])ccc1NCCCc1ccccc1 [5-NITRO-2-PHENYLPROPYLAMINOBENZOIC ACID] |  |  |  | % Inhibition total Cell Number @10 uM (SVG-A cells): −9%; % Inhibition (total #JCV+) @10 uM (JCV strain Mad1/SVEΔ): 14%; % Inhibition (% JCV+) @10 uM (JCV strain Mad1/SVEΔ): 21%
O=c1cc(-c2ccc(O)cc2)oc2ccc(O)cc12 [6,4′-DIHYDROXYFLAVONE] | -5% | 18% | 22% | 
COc1ccc([C@@H](C)C(=O)c2ccc(O)cc2O)cc1 [(R)-ANGOLENSIN] |  |  |  | % Inhibition total Cell Number @10 uM (SVG-A cells): −5%; % Inhibition (total #JCV+) @10 uM (JCV strain Mad1/SVEΔ): 18%; % Inhibition (% JCV+) @10 uM (JCV strain Mad1/SVEΔ): 22%
COc1ccc2c(c1)c(CC(=O)OCC(=O)O)c(C)n2C(=O)c1ccc(Cl)cc1 [ACEMETACIN] | -8% | 32% | 38% | 
CC(=O)OCC(=O)[C@@]12OC3(CCCC3)O[C@@H]1C[C@H]1[C@@H]3CCC4=CC(=O)C=C[C@]4(C)[C@@]3(F)[C@@H](O)C[C@@]12C [AMCINONIDE] | -11% | 16% | 25% | 
NCCOB(c1ccccc1)c1ccccc1 [AMINOETHOXYDIPHENYLBORANE] | 3% | 25% | 21% | 
C[C@H]1C[C@H]2[C@@H]3CCC4=CC(=O)C=C[C@]4(C)[C@@]3(F)[C@@H](O)C[C@]2(C)[C@@]1(O)C(=O)CO [BETAMETHASONE] | 14% | 34% | 24% | 
CCOc1nc2cccc(C(=O)OC(C)OC(=O)OC3CCCCC3)c2n1Cc1ccc(-c2ccccc2-c2nn[nH]n2)cc1 (stereo not drawn) [CANDESARTAN CILEXTIL] |  |  |  | % Inhibition total Cell Number @10 uM (SVG-A cells): 19%; % Inhibition (total #JCV+) @10 uM (JCV strain Mad1/SVEΔ): 54%; % Inhibition (% JCV+) @10 uM (JCV strain Mad1/SVEΔ): 44%
CCCCCCCCCCCCCCCC(=O)OC[C@@H](NC(=O)C(Cl)Cl)[C@H](O)c1ccc([N+](=O)[O-])cc1 [CHLORAMPHENICOL PALMITATE] | -13% | 20% | 29% | 
O=c1cc(-c2ccccc2)oc2cc(O)cc(O)c12 [CHRYSIN] | -12% | 18% | 26% | 
COc1ccc(-c2cc(=O)c3c(O)c(OC)c(OC)c(OC)c3o2)cc1OC [DEMETHYLNOBILETIN] |  |  |  | % Inhibition total Cell Number @10 uM (SVG-A cells): 20%; % Inhibition (total #JCV+) @10 uM (JCV strain Mad1/SVEΔ): 38%; % Inhibition (% JCV+) @10 uM (JCV strain Mad1/SVEΔ): 20%
O=C(O)Cc1ccccc1Nc1c(Cl)cccc1Cl [DICLOFENAC SODIUM] | 18% | 44% | 31% | CC50 (SVG-A cells; human, 3 days): 30.5 µM; IC50 (JCV strain Mad1/SVEΔ; JC polyomavirus, SVG-A): 8.3 µM
O=c1oc2ccccc2c(O)c1Cc1c(O)c2ccccc2oc1=O [DICUMAROL] | 3% | 36% | 35% | 
CC/C(=C(/CC)c1ccc(O)cc1)c1ccc(O)cc1 [DIETHYLSTILBESTROL] | 18% | 42% | 29% | 
COc1cc(C)c(C(=O)Oc2cc(C)c(C(=O)O)c(O)c2C)c(OC)c1C [DIFFRACTIC ACID] |  |  |  | CC50 (SVG-A cells): > 40 µM; % Inhibition total Cell Number @10 uM (SVG-A cells): 13%; % Inhibition (total #JCV+) @10 uM (JCV strain Mad1/SVEΔ): 44%; % Inhibition (% JCV+) @10 uM (JCV strain Mad1/SVEΔ): 36%; IC50 (JCV strain Mad1/SVEΔ; anti-JCV, inhibition of % JCV infected cells by 50%, full dose response, read-out: IC50): 14.4 µM
COc1ccc(C(=O)c2ccccc2O)c(O)c1 [DIOXYBENZONE, 2,2′-Dihydroxy-4-methoxybenzophenone] | 11% | 55% | 49% | 
OCCN(CCO)c1nc(N2CCCCC2)c2nc(N(CCO)CCO)nc(N3CCCCC3)c2n1 [DIPYRIDAMOLE] | 3% | 24% | 22% | 

Structure (SMILES) | inhibition at 10 µM (SVG-A cells) | inhibition at 10 µM (JCV strain Mad1/SVEΔ; [1]) | inhibition at 10 µM (JCV strain Mad1/SVEΔ; [2]) | also measured
O=S1OCC2C(CO1)C1(Cl)C(Cl)=C(Cl)C2(Cl)C1(Cl)Cl (stereo not drawn) [ENDOSULFAN] | 19% | 54% | 44% | 
O=C(O)c1ccccc1Nc1cccc(C(F)(F)F)c1 [FLUFENAMIC ACID] | 14% | 37% | 26% | 
C=C[C@@H]1C2=CCOC(=O)C2=CO[C@H]1O[C@@H]1O[C@H](CO)[C@@H](O)[C@H](O)[C@H]1O [GENTIOPICROSIDE] | 11% | 32% | 22% | 
COc1cc2c(cc1-c1coc3c4c(c(OC)cc3c1=O)OC(C)(C)C=C4)OCO2 [ICHTHYNONE] | 14% | 34% | 24% | 
C[C@H](N)CO [L-ALANINOL] |  |  |  | % Inhibition total Cell Number @10 uM (SVG-A cells): −23%; % Inhibition (total #JCV+) @10 uM (JCV strain Mad1/SVEΔ): 13%; % Inhibition (% JCV+) @10 uM (JCV strain Mad1/SVEΔ): 31%
COC(=O)c1c(C)c2c(c(C)c1O)OC(=O)c1c(C)c(Cl)c(O)c(Cl)c1O2 [LEOIDIN] | -9% | 14% | 21% | 
COc1cc(OC)c(C(C)=O)c(OC)c1 [METHYLXANTHOXYLIN] |  |  |  | % Inhibition total Cell Number @10 uM (SVG-A cells): 5%; % Inhibition (total #JCV+) @10 uM (JCV strain Mad1/SVEΔ): 33%; % Inhibition (% JCV+) @10 uM (JCV strain Mad1/SVEΔ): 30%
COc1ccc2cc(CCC(C)=O)ccc2c1 [NABUMETONE] | -2% | 20% | 23% | 
COc1cc2c(cc1-c1cc3cc4ccoc4cc3oc1=O)OCO2 [PACHYRRHIZIN] |  |  |  | % Inhibition total Cell Number @10 uM (SVG-A cells): 17%; % Inhibition (total #JCV+) @10 uM (JCV strain Mad1/SVEΔ): 45%; % Inhibition (% JCV+) @10 uM (JCV strain Mad1/SVEΔ): 34%
CC(C)=CCc1c(O)cc2oc(C)cc(=O)c2c1O [PEUCENIN] | -7% | 21% | 27% | 
COc1cc([C@@H]2c3cc4c(cc3[C@H](O)[C@H]3COC(=O)[C@@H]23)OCO4)cc(OC)c1OC [PICROPODOPHYLLOTOXIN] | -1% | 19% | 22% | 
COc1cc(/C=C/C(=O)N2CCC=CC2=O)cc(OC)c1OC [PIPLARTINE] | -7% | 21% | 27% | 
O=c1cc(-c2ccccc2)oc2cccc(O)c12 [PRIMULETIN] |  |  |  | % Inhibition total Cell Number @10 uM (SVG-A cells): 12%; % Inhibition (total #JCV+) @10 uM (JCV strain Mad1/SVEΔ): 40%; % Inhibition (% JCV+) @10 uM (JCV strain Mad1/SVEΔ): 29%
CC1=CCc2c(cc3oc(C)cc(=O)c3c2O)OC1 [PTAEROXYLIN] | 11% | 32% | 22% | 
CN1CCCN=C1/C=C/c1cccs1 [PYRANTEL PAMOATE] | 12% | 48% | 42% | 
Nc1nc2ccc(OC(F)(F)F)cc2s1 [RILUZOLE] |  | 16% | 26% | 
CN(CCOc1ccc(CC2SC(=O)NC2=O)cc1)c1ccccn1 (stereo not drawn) [ROSIGLITAZONE] | -1% | 22% | 23% | 
c1ccc2[nH]c(-c3cscn3)nc2c1 [THIABENDAZOLE] | -1% | 19% | 22% | 
Cc1c(Cl)cccc1Nc1ccccc1C(=O)O [TOLFENAMIC ACID] | 18% | 61% | 53% | 
